Literature values in patent US20130324508A1, “BIOMARKER FOR PROSTATE CANCER AND METHOD OF USING THE SAME” (UNIVERSITY OF TENNESSEE RESEARCH FOUNDATION, priority 2012, published 2013).

Key:
[1] = test system: DU145; conditions: androgen-independent DU145 cells; cited from earlier work
[2] = test system: LNCaP; conditions: androgen-dependent LNCaP cells; cited from earlier work
[3] = test system: PC-3; conditions: androgen-independent PC-3 cells; cited from earlier work

## C[N+](C)(C)CCOC(N)=O [carbachol]
[1]
  ERK phosphorylation: ERK phosphorylation is noted
[2]
  ERK phosphorylation: not
[3]
  ERK phosphorylation: ERK phosphorylation is noted
